Assay results published in US9486461B2, “Methods and compositions for inducing apoptosis by stimulating ER stress” (UNIVERSITY OF SOUTHERN CALIFORNIA, priority 2007, dated 2016).

Legend:
[1] = test system: U251 glioblastoma cells; test: Cell death ELISA, U251; format: cell-based, human; settings: U251, 48 hours, concentrations of up to 100 μmol/L
Experimental: (§1) U251 glioblastoma cells were treated with different drugs, and various parameters of cell growth and cell death were comparatively analyzed. As controls, cells remained either non-treated (Co) or were treated with the solvent DMSO alone. (FIG. 8A) Cells were treated with 30 or 50 μM DMC for 48 hours and the effects on cell growth/survival and on cell death were determined by various assays. […] Below the three panels, the expression levels of the ER stress indicators CHOP, GRP78, and caspase 4 at the end of the 48 hour drug treatment is shown, as determined by Western blot analysis with specific antibodies (actin served as a loading control. (FIG. 8B) Cells were treated with various concentrations of different drugs for 48 hours, as indicated, and cell death was measured with the cell death ELISA kit. (FIG. 8C) Cells were treated with DMC or various coxibs and traditional NSAIDs for 48 hours, as indicated, and cell growth and survival was determined with the conventional MTT assay (control, non-treated cells were set at 100%). MTT assays were performed in 96-well plates with the use of 3.0-8.0×10^3 cells per well as described in detail elsewhere (34). In parallel, the expression levels of CHOP and GRP78 protein were determined by Western blot analysis.
Apoptosis in cell cultures in vitro was determined by using the Cell Death Detection ELISA kit (Roche Diagnostics, Indianapolis, Ind.) according to the manufacturer's instructions. This immunoassay specifically detects the histone region (H1, H2A, H2B, H3, and H4) of mononucleosomes and oligonucleosomes that are released during apoptosis. Ninety-six-well plates were seeded with 1,000 cells per well and read at 405 nm in a Microplate Autoreader (Model EL 311 SX; Bio-Tek Instruments, Inc., Winooski, Vt.).

[2] = test system: U251 glioblastoma cells; test: TUNEL assay in cell culture, U251; format: cell-based, human; settings: U251, 30 and 50 μmol/L, 48 hours
Experimental: as §1
We next investigated the relationship of ER stress induction and cell death. […]

[3] = test system: U87 glioblastoma tumors; test: Tumor growth in xenograft nude mouse model; format: in vivo, nude mice; settings: daily chow for DMC, 40 mg/kg for rofecoxib, n=5
Experimental: Once palpable tumors had formed, the animals received daily chow supplemented with DMC, rofecoxib, or no drug. Tumor size was determined every three days. Shown is the average (mean±SD) tumor volume in each group (n=5). Asterisks (**): p<0.01 between control and DMC-treated animals on day 42.

[4] = test system: U251 glioblastoma cells; test: Colony formation assay after siRNA transfection, U251; format: cell-based, human; settings: 48 h
Experimental: U251 glioblastoma cells were transiently transfected with si-RNA directed at GRP78 (si-GRP78) or caspase 4 (si-Casp 4). As a control, an siRNA targeted at green fluorescent protein (si-GFP) was used. […] After 48 hours of drug treatment, the drugs were removed and the fraction of surviving cells was determined by colony forming assays. Shown is the percentage of surviving cells (where the number of colonies under non-drug treated conditions was set to 100%). […] (B) In order to verify the effectiveness of the si-RNAs, Western blot analysis of the target proteins was performed. Note that the knock-down of GRP78 leads to increased levels of CHOP protein, as expected from the model of ER stress, where GRP78 signaling is upstream of CHOP.
U251 cells were transiently transfected with si-RNA directed at GRP78 (si-GRP78). As a control, an siRNA targeted at green fluorescent protein (si-GFP) was used. […] In parallel, transfected control cultures received no drug treatment or treatment with solvent (DMSO) alone. After 48 hours, the drugs were removed and the fraction of surviving cells was determined by colony forming assays over the course of 12-14 days. […]
Twenty-four hours after transfection with small interfering RNA (siRNA), the cells were seeded into six-well plates at 200 cells per well. […] Colonies were visualized by staining for 4 h with 1% methylene blue (in methanol) and then counted. […]

[5] = test system: CHOP, GRP78, caspase 4 in U251 glioblastoma cells; test: Western blot of ER stress indicators in U251 cells; format: cell-based, human; settings: U251, 30 and 50 μmol/L, 48 hours
[6] = test system: Tumor-associated Brain Endothelial Cells (TuBEC); test: Trypan blue exclusion, tumor-associated brain endothelial cells; format: cell-based; settings: TMZ 300 uM and 20 uM DMC, 48 hours, then 12 days without drug
Experimental: After drug treatment the cells were incubated for another 12 days in the absence of drug, in order to determine their long-term survival; at that time cytotoxicity was evaluated using the trypan blue exclusion technique. Results are presented as number of viable cells per group.
Tumor-associated Brain Endothelial Cells (TuBEC) were treated with TMZ (300 uM) and 20 uM DMC for 48 hours. The drugs were removed and cells were incubated for another 12 days; at that time cytotoxicity was evaluated using the trypan blue exclusion technique. Results are presented as number of viable cells per group.

SMILES | induction of cell death/apoptosis (cell death ELISA) [1] | apoptosis (TUNEL) [2] | tumor growth on longer-term therapy [3] | cell survival when GRP78 levels were reduced by siRNA (vs si-GFP) ([4]; U251, 40 μM Cxb or 30 μM DMC) | cell survival when caspase-4 expression was diminished by siRNA (vs si-GFP) ([4]; U251, 60 μM Cxb or 40 μM DMC) | stimulation of the ESR (CHOP, GRP78, caspase-4 cleavage) [5] | susceptibility of tumor vascular endothelial cells to TMZ [6]
Cc1ccc(-c2cc(C(F)(F)F)nn2-c2ccc(S(N)(=O)=O)cc2)cc1 [celecoxib, 4-[5-(4-methylphenyl)-3-(trifluoromethyl)-1H-pyrazol-1-yl]benzenesulfonamide] | able to induce cell death/apoptosis |  |  |  |  |  | 
Cc1ccc(C)c(-c2cc(C(F)(F)F)nn2-c2ccc(S(N)(=O)=O)cc2)c1 [DMC, 4-[5-(2,5-dimethylphenyl)-3-(trifluoromethyl)-1H-pyrazol-1-yl]benzenesulfonamide] |  | substantially increased apoptosis | significantly reduced tumor growth | less cell survival | increased | potently stimulated the ESR | increased the susceptibility
